{"source": "patent US12440581B2", "about": "“Fluorophores for super-resolution imaging” (HOWARD HUGHES MEDICAL INSTITUTE, priority 2019, dated 2025)", "key": {"[1]": {"target": "HaloTag protein (Rhodococcus rhodochrous, UniProt P0A3G2, A155T/A167V/A172T/A224E/C128F/C176G/D78G/E160K/E257K/H272N/K175M/K195N/L47V/L88M/N227D/P291S/S2A/S58T/T264A/Y273L/Y87F)", "sequence (P0A3G2 other isoform, or with tags, fused parts or gaps with the stated changes)": "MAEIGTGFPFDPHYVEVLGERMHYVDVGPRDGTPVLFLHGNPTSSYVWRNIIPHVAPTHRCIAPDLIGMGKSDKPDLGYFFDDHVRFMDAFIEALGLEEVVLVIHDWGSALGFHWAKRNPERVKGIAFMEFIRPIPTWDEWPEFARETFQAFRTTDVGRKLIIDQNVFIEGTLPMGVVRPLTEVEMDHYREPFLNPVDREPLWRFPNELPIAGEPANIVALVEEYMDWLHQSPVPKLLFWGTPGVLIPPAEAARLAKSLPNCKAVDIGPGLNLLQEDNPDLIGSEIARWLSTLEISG", "test": "Increase in absorption of HaloTag ligands following attachment to HaloTag protein", "assay_type": "biochemical", "details": "5 μM ligand, 1.5 equiv HaloTag protein", "method": "Measurement of increase in absorption of HaloTag ligands 1HTL-10HTL following attachment to HaloTag protein. HaloTag protein was prepared as a 100 μM solution in 75 mM NaCl, 50 mM TRIS·HCl, pH 7.4. Absorption measurements were performed in 1.0-mL quartz cuvettes. HaloTag ligands (5 μM) were dissolved in 10 mM HEPES, pH 7.3 containing 0.1 mg/mL CHAPS. An aliquot of HaloTag protein (75 μL, 7.5 μM, 1.5 equiv) or an equivalent volume of buffer (75 mM NaCl, 50 mM TRIS·HCl, pH 7.4) was added and the resulting mixture was incubated until a consistent absorption signal was observed (˜60 min). Absorption scans are averages (n=2)."}, "[2]": {"tested_on": "histone H2B-SNAP-tag", "test": "Comparison of SNAP ligands 7STL and 10STL in live cells (no-wash)", "assay_type": "cell-based", "details": "1 μM, 1 h", "source_text": "Comparison of SNAP ligands 7STL and 10STL in live cells."}, "[3]": {"tested_on": "histone H2B-HaloTag", "test": "Comparison of HaloTag ligands 7HTL and 10HTL in live cells (no-wash)", "assay_type": "cell-based", "details": "500 nM, 30 min", "source_text": "Comparison of HaloTag ligands 7HTL and 10HTL in live cells."}, "[4]": {"test": "UV-vis and fluorescence spectroscopy", "assay_type": "physicochemical", "details": "10 mM HEPES, pH 7.3", "method": "UV-vis and fluorescence spectroscopy. […] Spectroscopy was performed using 1-cm path length, 3.5-mL quartz cuvettes or 1-cm path length, 1.0-ml quartz microcuvettes (Starna Cells). All measurements were taken at ambient temperature (22±2° C.). Absorption spectra were recorded on a Cary Model 100 spectrometer (Agilent). Fluorescence spectra were recorded on a Cary Eclipse fluorometer (Varian). Maximum absorption wavelength (λabs), extinction coefficient (εw), and maximum emission wavelength (λem) were taken in 10 mM HEPES, pH 7.3 buffer unless otherwise noted; reported values for ew are averages (n=3). Normalized spectra are shown for clarity."}, "[5]": {"test": "Determination KL-Z and εmax", "assay_type": "physicochemical", "method": "Determination KL-Z and εmax. The lactone-zwitterion equilibrium constant (KL-Z) was calculated as described previously^18,41 using equation 1: KL-Z=(εdw/εmax)/(1−εdw/εmax) (1) • where εdw is the extinction coefficient of the dyes in a 1:1 (v/v) dioxane:water solvent mixture containing 0.01% (v/v) triethylamine; the dioxane-water mixture was chosen to give a large range of KL-Z values and the triethylamine additive ensures the rhodamines are in the net neutral form. The emax (maximal extinction coefficient) values were measured in 0.1% (v/v) trifluoroacetic acid (TFA) in 2,2,2-trifluoroethanol (TFE) for rhodaminc 10, and 0.1% (v/v) TFA in ethanol for the Si-rhodamine 8.\nInstead, a solution of strong acid in alcoholic solvents was used (e.g., TFA in […]) to shift the equilibrium to the open form by protonation of the o-carboxyl group. This decades-old procedure^36 allows estimation of the maximal extinction coefficient (εmax) and determination of KL-Z=(ε/εmax)/(1−ε/εmax).\nThe KL-Z was determined using ε values measured in 1:1 dioxane:water to ensure a broad distribution of values.^18 An inverse relationship was observed between KL-Z and fluorogenicity, showing that KL-Z is sufficient to accurately predict the increase in fluorescence of rhodamine dyes. This increase in fluorescence is primarily driven by the increase in absorption; chromogenicity is correlated both with KL-Z and fluorogenicity (FIGS. 11E-11J). Importantly, this trend holds across different rhodamine scaffolds including Si-rhodamines (1-3), carborhodamines (4-5), and classic, oxygen-containing rhodamines (6-7, FIG. 1C). Based on this inverse relationship a simple rubric was determined: a dye with KL-Z<10^−2 should yield a HaloTag ligand with at least 10-fold fluorogenicity (FIG. 1E)."}, "[6]": {"test": "Quantum yield determination", "assay_type": "physicochemical", "details": "absolute, integrating sphere", "method": "Quantum yield determination. All reported absolute fluorescence quantum yield values (Φ) were measured in the laboratory under identical conditions using a Quantaurus-QY spectrometer (model C11374, Hamamatsu). This instrument uses an integrating sphere to determine photons absorbed and emitted by a sample. Measurements were carried out using dilute samples (A<0.1) and self-absorption corrections were performed using the instrument software^57 when appropriate. Reported values are averages (n=3)."}, "[7]": {"tested_on": "microtubules", "details": "live-cell no-wash imaging"}}}
{"molecule": "O=C(NCCOCCOCCCCCCCl)c1ccc(C(=O)[O-])c(-c2c3cc(F)c(=[N+]4CC(F)(F)C4)cc-3oc3cc(N4CC(F)(F)C4)c(F)cc23)c1", "note": "[10HTL, JF526-HaloTag ligand]", "values": [{"measurement": "increase of absorbance upon conjugation to purified HaloTag protein", "setting": "[1]", "result": "substantial increase"}]}
{"molecule": "Nc1nc(OCc2ccc(CNC(=O)c3ccc(C(=O)[O-])c(-c4c5cc(F)c(=[N+]6CC(F)(F)C6)cc-5oc5cc(N6CC(F)(F)C6)c(F)cc45)c3)cc2)c2nc[nH]c2n1", "note": "[10STL, JF526-SNAP-tag ligand]", "values": [{"measurement": "signal-to-background compared to JF525", "setting": "[2]", "result": "superior signal-to-background"}]}
{"molecule": "O=C([O-])c1ccccc1-c1c2cc(F)c(=[N+]3CC(F)(F)C3)cc-2oc2cc(N3CC(F)(F)C3)c(F)cc12", "note": "[dye 10, Janelia Fluor 526]", "values": [{"measurement": "signal-to-background compared to JF525", "setting": "[3]", "result": "superior signal-to-background"}, {"measurement": "εw", "setting": "[4]", "result": "19,000 M^−1cm^−1"}, {"measurement": "λabs", "setting": "[4]", "result": 526, "unit": "nm"}, {"measurement": "λem", "setting": "[4]", "result": 550, "unit": "nm"}, {"measurement": "εmax", "setting": "[5]; 0.1% TFA in TFE (rhodamine 10), 0.1% TFA in ethanol (Si-rhodamine 8)", "result": "118,000 M^−1cm^−1"}, {"measurement": "KL-Z (lactone-zwitterion equilibrium constant)", "setting": "[5]; 1:1 (v/v) dioxane:water, 0.01% triethylamine", "result": 0.0050}, {"measurement": "ϕ (fluorescence quantum yield)", "setting": "[6]", "result": 0.87}]}
{"molecule": "JF526-Taxol [10TXL]", "values": [{"measurement": "performance relative to SiR-tubulin (1TXL)", "setting": "[7]", "result": "comparable performance"}]}
